In assay [1] the target is T1, native endogenous human BACE1 in HEK293/APP751sw cells (Homo sapiens, UniProt P56817).
T1 construct: endogenous in cells; host or cells: HEK293p (ATCC CRL-1573) stably expressing APP751sw
Description: HEK293Swe whole cell assay (Abeta ELISA). It is filed as cell-based.

Assay [2] addresses T2, native, endogenous murine BACE1 in PDAPP primary cortical neurons (Mus musculus, UniProt P56818).
T2 construct: endogenous in cells; host or cells: primary cortical neurons from Embryonic Day 16 PDAPP transgenic mouse embryos
Put plainly: PDAPP primary neuronal assay (Abeta ELISA). It is filed as cell-based. To be noted: primary cortical neurons from PDAPP embryos, 24 h.

Assay [3] has as its target T3, human BACE1(1-460):Fc (Homo sapiens, UniProt P56817).
T3 construct: made in house; host or cells: HEK293 cells, transient transfection; purified from conditioned media by Protein A chromatography
Put plainly: BACE1 FRET assay. It is filed as biochemical. To be noted: purified recombinant human BACE1(1-460):Fc, FRET substrate, pH 4.6.

The test system of assay [4] is beta-secretase. Put plainly: In vivo inhibition of beta-secretase in PDAPP mice. To be noted: 3 hours; for Abeta 1-x peptide level reduction in brain cortex / C99 level reduction in brain cortex / sAPPb level reduction in brain cortex: young female PDAPP mice, vs vehicle-treated mice. The source says: Several animal models, including mouse, guinea pig, dog, and monkey, may be used to screen for inhibition of beta-secretase activity in vivo following compound treatment. Animals used in this invention can be wild type, transgenic, or gene knockout animals. For example, the PDAPP mouse model, prepared as described in Games et al., Nature 373, 523-527 (1995), and other non-transgenic or gene knockout animals are useful to analyze in vivo inhibition of Abeta and sAPPbeta production in the presence of inhibitory compounds. Generally, 2 to 12 month old PDAPP mice, gene knockout mice or non-transgenic animals are administered compound formulated in vehicles, such as corn oil, cyclodextran, phosphate buffers, PHARMASOLVE®, or other suitable vehicles. One to twenty-four hours following the administration of compound, animals are sacrificed, and brains as well as cerebrospinal fluid and plasma are removed for analysis of Abetas, C99, and sAPP fragments. (See Dovey, et al., Journal of Neurochemistry, 76, 173-181 (2001); and Johnson-Wood, et al., Proc. Natl. Acad. Sci. USA, 94, 1550-1555 (1997)).
For standard in vivo pharmacology studies, animals are dosed with various concentrations of compound and compared to a vehicle-treated control group dosed at the same time. For some time course studies, brain tissue, plasma, or cerebrospinal fluid is obtained from selected animals, beginning at time 0 to establish a baseline. Compound is administered to other groups and sacrificed at various times after dosing. Brain tissue, plasma, or cerebrospinal fluid is obtained from selected animals and analyzed for the presence of APP cleavage products, including Abeta peptides, sAPPbeta, and other APP fragments, for example, by specific sandwich ELISA assays. At the end of the test period, animals are sacrificed and brain tissues, plasma, or cerebrospinal fluid are analyzed for the presence of Abeta peptides, C99, and sAPPbeta, as appropriate. Brain tissues of APP transgenic animals are also analyzed for the amount of beta-amyloid plaques following compound treatment.

The mark [5] stands for this setting: Abeta 1-40 in conditioned media, read-out: HEK 293 Swe A-beta (1-40) ELISA IC50.
Where [6] appears, read: Abeta 1-42 in conditioned media, read-out: HEK 293 Swe A-beta (1-42) ELISA IC50.
Setting [7] is: Abeta 1-40, read-out: PDAPP Neuron A-beta (1-40) ELISA IC50.
[8] abbreviates: Abeta 1-42, read-out: PDAPP Neuron A-beta (1-42) ELISA IC50.

Where a name gives a salt, the structure may show the parent alone. Read-outs that look alike come from different tables or passages of the source.

Results on four compounds are retold here after patent publication US8278441B2, “BACE inhibitors” (Eli Lilly and Company, priority 2009, dated 2012).

T3 sequence (P56817 22-460): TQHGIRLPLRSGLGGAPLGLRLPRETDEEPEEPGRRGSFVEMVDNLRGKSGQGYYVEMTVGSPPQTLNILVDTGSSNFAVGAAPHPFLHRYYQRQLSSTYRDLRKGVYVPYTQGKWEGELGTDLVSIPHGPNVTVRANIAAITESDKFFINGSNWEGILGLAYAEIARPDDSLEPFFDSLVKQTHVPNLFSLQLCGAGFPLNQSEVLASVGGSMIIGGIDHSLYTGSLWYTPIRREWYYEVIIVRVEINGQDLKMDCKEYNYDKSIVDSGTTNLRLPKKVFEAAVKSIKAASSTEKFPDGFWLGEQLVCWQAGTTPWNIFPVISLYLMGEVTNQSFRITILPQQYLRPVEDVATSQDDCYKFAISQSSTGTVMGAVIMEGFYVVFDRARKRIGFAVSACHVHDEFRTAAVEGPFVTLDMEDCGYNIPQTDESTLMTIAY
T2 sequence (P56818 46-501): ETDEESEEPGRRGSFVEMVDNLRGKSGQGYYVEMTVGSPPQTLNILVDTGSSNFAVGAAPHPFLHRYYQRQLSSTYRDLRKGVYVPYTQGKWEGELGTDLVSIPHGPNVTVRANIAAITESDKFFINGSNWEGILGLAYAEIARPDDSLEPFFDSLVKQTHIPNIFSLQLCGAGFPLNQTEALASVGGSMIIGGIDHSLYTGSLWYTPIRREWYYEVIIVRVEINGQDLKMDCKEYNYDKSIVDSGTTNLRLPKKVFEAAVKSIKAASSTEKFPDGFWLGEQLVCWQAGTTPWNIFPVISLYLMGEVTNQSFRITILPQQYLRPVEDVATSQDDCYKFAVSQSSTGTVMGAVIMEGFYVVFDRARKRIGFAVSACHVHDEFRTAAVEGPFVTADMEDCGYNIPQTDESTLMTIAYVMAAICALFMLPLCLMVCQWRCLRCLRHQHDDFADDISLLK
T1 sequence (P56817 46-501): as the sequence (P56818 46-501) above, with S6P, I162V, I165L, T180S, A182V, V340I, A393L, H443Q counted along it

With `NC1=N[C@@]2(c3cccc(-c4cncnc4)c3)C[C@H](O)C[C@H]2CS1` (racemic) [Example 32, Racemic (4aRS,6RS,7aSR)-2-Amino-7a-(3-(pyrimidin-5-yl)phenyl)-4,4a,5,6,7,7a-hexahydrocyclopenta[d][1,3]thiazin-6-ol dihydrochloride], the concentration for half-maximal inhibition (IC50) turned out to be 670 nM in assay [1] (setting [5]); 173 nM in assay [1] (setting [6]); 436 nM in assay [2] (setting [7]); 352 nM in assay [2] (setting [8]); 346 nM in assay [3].

As to `Cl.NC1=N[C@@]2(c3cc(NC(=O)c4ccc(F)cn4)ccc3F)COC[C@H]2CS1` [Example 1, N-(3-((4aS,7aS)-2-Amino-4a,5,7,7a-tetrahydro-4H-furo[3,4-d][1,3]thiazin-7a-yl)-4-fluorophenyl)-5-fluoropicolinamide hydrochloride], in assay [4] (CSF, 10 mg/kg oral), the “CSF Abeta 1-42 level reduction” value was “approximately 62%”, the “CSF Abeta 1-x level reduction” value is on record as “approximately 62%”, the “CSF sAPPalpha levels” value was “unchanged” and the “CSF sAPPbeta level reduction” value came out at 22%. Moreover, in assay [4] (10 mg/kg oral), the “Abeta 1-x peptide level reduction in brain cortex” value was “approximately 54%”, the “C99 level reduction in brain cortex” value is around 34% and the “sAPPb level reduction in brain cortex” value is given as around 42%. Moreover, in assay [4] (10 mg/kg subcutaneous), the “Abeta 1-x peptide level reduction in brain cortex” value is recorded as “approximately 64%”, the “C99 level reduction in brain cortex” value is listed as around 60% and the “sAPPb level reduction in brain cortex” value was around 44%.

Turning to `NC1=N[C@@]2(c3cc(NC(=O)c4nccs4)ccc3F)CCOC[C@H]2CS1` [Example 8, N-(3-((8aS)-2-Amino-4,4a,5,7,8,8a-hexahydropyrano[4,3-d][1,3]thiazin-8a-yl)-4-fluorophenyl)thiazole-2-carboxamide hydrochloride], the IC50 in assay [1] (setting [5]) is 78 nM; in assay [1] (setting [6]) it was 89.6 nM; in assay [2] (setting [7]) it was 32.8 nM; in assay [2] (setting [8]), 41.3 nM; in assay [3] it was 179 nM.

In the case of `NC1=N[C@@]2(c3cccc(-c4cncnc4)c3)CCCC[C@H]2CS1` [Example 25, (8aS)-8a-(3-(Pyrimidin-5-yl)phenyl)-4a,5,6,7,8,8a-hexahydro-4H-benzo[d][1,3]thiazin-2-amine dihydrochloride], the 50% inhibitory concentration (IC50) in assay [1] (setting [5]) came out at 1360 nM; in assay [1] (setting [6]), 1150 nM; in assay [2] (setting [7]), 734 nM; in assay [2] (setting [8]) it was 659 nM; in assay [3], 731 nM.
